Measured values reported in ChEMBL document CHEMBL1158146, “Oppositines A and B, sesquiterpene pyridine alkaloids from a Sri Lankan Pleurostylia opposita” (J Nat Prod, 2006).
The source made the active and inactive calls. No cut-off for these calls is given here.

Experiments:
[1] = molecular target: Hypoxia-inducible factor 1-alpha (Homo sapiens) (UniProt Q16665); test: Inhibition of HIF1alpha
[2] = Cytotoxicity against human HCT 116 cells after 48 hrs by MTT assay; type: functional, cell-based; details: HCT-116, 48 h
[3] = test system: Human immunodeficiency virus; test: Antiviral activity against HIV upto 10 ug/mL; type: functional, organism-based

Chain of Hypoxia-inducible factor 1-alpha (Homo sapiens) (Q16665 whole entry, looked up): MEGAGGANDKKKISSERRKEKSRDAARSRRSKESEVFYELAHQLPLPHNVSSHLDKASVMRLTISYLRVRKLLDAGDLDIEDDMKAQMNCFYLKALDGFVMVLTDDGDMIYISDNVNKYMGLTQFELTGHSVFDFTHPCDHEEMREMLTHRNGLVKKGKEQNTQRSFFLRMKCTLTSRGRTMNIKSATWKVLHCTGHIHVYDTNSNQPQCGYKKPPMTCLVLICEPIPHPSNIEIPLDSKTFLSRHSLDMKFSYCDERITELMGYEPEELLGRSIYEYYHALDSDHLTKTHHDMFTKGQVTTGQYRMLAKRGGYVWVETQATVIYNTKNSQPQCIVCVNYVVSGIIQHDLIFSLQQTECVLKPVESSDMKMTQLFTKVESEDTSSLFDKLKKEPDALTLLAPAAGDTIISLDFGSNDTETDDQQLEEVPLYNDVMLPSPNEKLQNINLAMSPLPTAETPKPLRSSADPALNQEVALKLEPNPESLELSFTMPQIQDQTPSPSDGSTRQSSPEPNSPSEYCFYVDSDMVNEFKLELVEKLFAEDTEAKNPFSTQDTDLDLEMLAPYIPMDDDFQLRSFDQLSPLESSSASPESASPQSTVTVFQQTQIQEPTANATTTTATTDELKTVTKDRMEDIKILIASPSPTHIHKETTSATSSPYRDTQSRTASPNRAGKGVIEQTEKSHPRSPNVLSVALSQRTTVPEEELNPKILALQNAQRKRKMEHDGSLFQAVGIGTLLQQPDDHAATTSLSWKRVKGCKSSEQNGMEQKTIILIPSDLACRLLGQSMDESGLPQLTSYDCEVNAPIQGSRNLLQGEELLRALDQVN

**Q.** Which Activity [1] does the source give for `CCC1CCC(=O)O[C@H]2[C@H](OC(C)=O)[C@H](OC(=O)c3ccccc3)[C@@]3(COC(C)=O)[C@H](OC(C)=O)[C@H](OC(C)=O)[C@@H]4[C@@H](OC(C)=O)[C@]3(O[C@]4(C)COC(=O)c3cccnc31)[C@@]2(C)O` (stereo partly specified) [OPPOSITINE A] here?
**A.** inactive

**Q.** What about the EC50 [2] of the same molecule?
**A.** 27 µM

**Q.** What about the Activity [3] of the same molecule?
**A.** inactive

**Q.** For `CCC1CCC(=O)O[C@H]2[C@H](OC(C)=O)[C@H](OC(=O)c3ccccc3)[C@@]3(COC(C)=O)[C@H](OC(C)=O)[C@H](OC(C)=O)[C@@H]4[C@@H](OC(C)=O)[C@]3(O[C@]4(C)COC(=O)c3cccnc31)[C@@H]2C` (stereo partly specified) [OPPOSITINE B], which Activity [1] is on record?
**A.** inactive

**Q.** What about the EC50 [2] of the same molecule?
**A.** 26 µM

**Q.** And the Activity [3]?
**A.** inactive
